Measurements as given in PubChem BioAssay AID248 (DTP/NCI, 2004).
Where “and” joins values, the source holds several entries; their conditions need not be identical. Equal entries are not always repeated. Inconclusive results and toxic doses are left out. Cut-off read from the data, not from the text of the source: active = T/C of 150% or more; inactive = T/C below 125%.

Tested on: L1210 leukemia ip in BDF1 mice, survival T/C
Test: NCI In Vivo Anticancer Drug Screen. Data for tumor model L1210 Leukemia (intraperitoneal) in B6D2F1 (BDF1) mice
Details: endpoint: mean survival time, higher = longer survival
Procedure, shortened: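 Mice bearing the transplanted tumor received compound or vehicle. Survival of the treated group was divided by that of the vehicle-treated control group to give the ratio.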

[1] = dose: 100.0 mg/kg/injection, schedule: Q01DX009 (ip), vehicle: saline with Tween-80
[2] = dose: 200.0 mg/kg/injection, schedule: Q01DX009 (ip), vehicle: saline with Tween-80
[3] = dose: 400.0 mg/kg/injection, schedule: Q01DX009 (ip), vehicle: saline with Tween-80
[4] = dose: 100.0 mg/kg/injection, schedule: Q01DX009 (ip), vehicle: Klucel (hydroxypropylcellulose) (HPC)
[5] = dose: 200.0 mg/kg/injection, schedule: Q01DX009 (ip), vehicle: Klucel (hydroxypropylcellulose) (HPC)
[6] = dose: 100.0 mg/kg/injection, schedule: Q04DX003 (ip), vehicle: saline with Tween-80
[7] = dose: 200.0 mg/kg/injection, schedule: Q04DX003 (ip), vehicle: saline with Tween-80
[8] = dose: 400.0 mg/kg/injection, schedule: Q04DX003 (ip), vehicle: saline with Tween-80
[9] = dose: 50.0 mg/kg/injection, schedule: Q01DX001 (ip), vehicle: carboxymethylcellulose (CMC)
[10] = dose: 100.0 mg/kg/injection, schedule: Q01DX001 (ip), vehicle: carboxymethylcellulose (CMC)
[11] = dose: 200.0 mg/kg/injection, schedule: Q01DX001 (ip), vehicle: carboxymethylcellulose (CMC)
[12] = dose: 400.0 mg/kg/injection, schedule: Q01DX001 (ip), vehicle: carboxymethylcellulose (CMC)
[13] = dose: 100.0 mg/kg/injection, schedule: Q04DX003 (ip), vehicle: Klucel (hydroxypropylcellulose) (HPC)
[14] = dose: 200.0 mg/kg/injection, schedule: Q04DX003 (ip), vehicle: Klucel (hydroxypropylcellulose) (HPC)
[15] = dose: 400.0 mg/kg/injection, schedule: Q01DX009 (ip), vehicle: Klucel (hydroxypropylcellulose) (HPC)
[16] = dose: 400.0 mg/kg/injection, schedule: Q04DX003 (ip), vehicle: Klucel (hydroxypropylcellulose) (HPC)
[17] = dose: 100.0 mg/kg/injection, schedule: Q01DX001 (ip), vehicle: saline
[18] = dose: 200.0 mg/kg/injection, schedule: Q01DX001 (ip), vehicle: saline
[19] = dose: 400.0 mg/kg/injection, schedule: Q01DX001 (ip), vehicle: saline
[20] = dose: 100.0 mg/kg/injection, schedule: Q01DX009 (ip), vehicle: saline

Measured: T/C

S=C(Nc1ccccc1)c1ccccn1
inactive: [1] 102 % of control | [2] 100 % of control | [3] 90 % of control

CC1CCc2c(c3c(=O)[nH]c(=O)[nH]c3oc2=O)C1 (stereo not drawn)
inactive: dose: 50.0 mg/kg/injection, schedule: Q01DX009 (ip), vehicle: Klucel (hydroxypropylcellulose) (HPC) 105 % of control | [4] 93 % of control | [5] 89 % of control

Nc1cc(S(N)(=O)=O)ccc1N1CCCCC1
inactive: [6] 95 % of control | [7] 96 % of control | [8] 101 % of control

Clc1ncnc2[nH]cc(Br)c12
inactive: [9] 98 % of control | [10] 104 % of control | [11] 110 % of control | [12] 98 % of control

Cc1ccc(S(=O)(=O)Oc2ccccc2)cc1
inactive: [4] 96 % of control | [13] 94 % of control | [5] 100 % of control | [14] 94 % of control | [15] 97 % of control | [16] 92 % of control

CCOC(=O)C(CC)C(=O)OCC
inactive: [6] 104 % of control | [7] 98 % of control | [8] 93 % of control

COC(=O)C(CSCSC)NC(=O)/C=C/c1ccc(C)cc1 (stereo not drawn)
inactive: [1] 102 % of control | [6] 93 % of control | [2] 101 % of control | [3] 91 % of control | [8] 91 % of control

CC(C)(O)CNC(=O)c1cccc([N+](=O)[O-])c1
inactive: [13] 94 % of control | [14] 88 % of control

NC(=O)c1ccc[n+](CCF)c1
inactive: [17] 98 % of control | [18] 98 % of control | [19] 104 % of control

CC(=O)OC(C1C[C@@]2(C)[C@@H](CC[C@@H]3[C@@H]2CC[C@]2(C)[C@@H](OC(C)=O)CC[C@@H]32)CC1=O)C(F)(F)F (stereo partly drawn)
inactive: dose: 50.0 mg/kg/injection, schedule: Q01DX009 (ip), vehicle: carboxymethylcellulose (CMC) 97 % of control | dose: 100.0 mg/kg/injection, schedule: Q01DX009 (ip), vehicle: carboxymethylcellulose (CMC) 89 % of control | dose: 200.0 mg/kg/injection, schedule: Q01DX009 (ip), vehicle: carboxymethylcellulose (CMC) 95 % of control

CC(=O)OC1CCC2(C)C3CCC4(C)C(C(C)/C=C/C(C)C(C)C)CCC4C34C=CC2(C1)C1C(=O)OC(=O)C14 (stereo not drawn)
inactive: dose: 100.0 mg/kg/injection, schedule: Q04DX002 (ip), vehicle: saline 93 % of control | dose: 200.0 mg/kg/injection, schedule: Q04DX002 (ip), vehicle: saline 96 % of control | dose: 400.0 mg/kg/injection, schedule: Q04DX002 (ip), vehicle: saline 89 % of control

C[n+]1ccccc1C(=O)O
inactive: [17] 97 % of control | dose: 100.0 mg/kg/injection, schedule: Q04DX003 (ip), vehicle: saline 97 % of control | [18] 106 % of control | dose: 200.0 mg/kg/injection, schedule: Q04DX003 (ip), vehicle: saline 95 % of control | [19] 101 % of control | dose: 400.0 mg/kg/injection, schedule: Q04DX003 (ip), vehicle: saline 92 % of control

COc1cc2c(cc1OC)C(CC1=C(c3ccccc3)CN3CCc4cc(OC)c(OC)cc4C3C1)NCC2 (stereo not drawn)
inactive: dose: 4.0 mg/kg/injection, schedule: Q04DX003 (ip), vehicle: water 106 % of control and 102 % of control | dose: 8.0 mg/kg/injection, schedule: Q04DX003 (ip), vehicle: water 98 % of control and 101 % of control | dose: 16.0 mg/kg/injection, schedule: Q04DX003 (ip), vehicle: water 106 % of control and 103 % of control | dose: 32.0 mg/kg/injection, schedule: Q04DX003 (ip), vehicle: water 102 % of control and 96 % of control | dose: 64.0 mg/kg/injection, schedule: Q04DX003 (ip), vehicle: water 96 % of control and 95 % of control | dose: 75.0 mg/kg/injection, schedule: Q01DX001 (ip), vehicle: saline 101 % of control and 97 % of control | dose: 150.0 mg/kg/injection, schedule: Q01DX001 (ip), vehicle: saline 94 % of control and 92 % of control

CC(=O)Nc1ccc(/C=N\NC(=S)Nc2ccc3cn[nH]c3c2)cc1
inactive: [9] 100 % of control | [10] 97 % of control | [11] 103 % of control | [12] 97 % of control

CN(C)C(=S)Oc1c(Cl)cc(S(=O)(=O)F)cc1Cl
inactive: dose: 12.5 mg/kg/injection, schedule: Q04DX002 (ip), vehicle: Klucel (hydroxypropylcellulose) (HPC) 98 % of control | dose: 25.0 mg/kg/injection, schedule: Q04DX002 (ip), vehicle: Klucel (hydroxypropylcellulose) (HPC) 105 % of control | dose: 50.0 mg/kg/injection, schedule: Q04DX002 (ip), vehicle: Klucel (hydroxypropylcellulose) (HPC) 109 % of control | dose: 100.0 mg/kg/injection, schedule: Q04DX002 (ip), vehicle: Klucel (hydroxypropylcellulose) (HPC) 94 % of control | dose: 200.0 mg/kg/injection, schedule: Q04DX002 (ip), vehicle: Klucel (hydroxypropylcellulose) (HPC) 100 % of control

COc1ccc(C(CC(=O)O)c2cc(OC)c(OC)c(OC)c2)cc1OC (stereo not drawn)
inactive: [10] 92 % of control | [11] 93 % of control | [12] 93 % of control

Nc1cccc2ccc(S(=O)(=O)O)cc12
inactive: [20] 106 % of control | dose: 200.0 mg/kg/injection, schedule: Q01DX009 (ip), vehicle: saline 97 % of control | dose: 400.0 mg/kg/injection, schedule: Q01DX009 (ip), vehicle: saline 101 % of control

CC(Oc1nc2c(c(=O)n(C)c(=O)n2C)n1C)C1CCCC1 (stereo not drawn)
inactive: dose: 50.0 mg/kg/injection, schedule: Q01DX001 (ip), vehicle: other 103 % of control | dose: 100.0 mg/kg/injection, schedule: Q01DX001 (ip), vehicle: other 100 % of control

CC1CC(=O)NC(=O)N1Cc1ccccc1 (stereo not drawn)
inactive: dose: 100.0 mg/kg/injection, schedule: Q01DX Z (ip), vehicle: methylcellulose (MC) 91 % of control | dose: 200.0 mg/kg/injection, schedule: Q01DX Z (ip), vehicle: methylcellulose (MC) 92 % of control

CC(=O)C1Cc2ccccc2C1=O (stereo not drawn)
inactive: dose: 50.0 mg/kg/injection, schedule: Q01DX001 (ip), vehicle: saline 100 % of control | [17] 97 % of control | [18] 106 % of control | [19] 108 % of control

CCOC(=O)c1[nH]c(C)c(CC(C(=O)OCC)C(=O)OCC)c1C
inactive: dose: 25.0 mg/kg/injection, schedule: Q04DX003 (ip), vehicle: Klucel (hydroxypropylcellulose) (HPC) 97 % of control | dose: 50.0 mg/kg/injection, schedule: Q04DX003 (ip), vehicle: Klucel (hydroxypropylcellulose) (HPC) 93 % of control | dose: 100.0 mg/kg/injection, schedule: Q01DX001 (ip), vehicle: Klucel (hydroxypropylcellulose) (HPC) 101 % of control | [13] 95 % of control | dose: 200.0 mg/kg/injection, schedule: Q01DX001 (ip), vehicle: Klucel (hydroxypropylcellulose) (HPC) 95 % of control | dose: 400.0 mg/kg/injection, schedule: Q01DX001 (ip), vehicle: Klucel (hydroxypropylcellulose) (HPC) 98 % of control

CCCCC(/C=N\NC(=O)c1ccc[n+](C)c1)CC (stereo not drawn)
inactive: dose: 50.0 mg/kg/injection, schedule: Q01DX009 (ip), vehicle: saline 103 % of control | [20] 100 % of control

Nc1c(Cl)cc(Cl)c2ccc([N+](=O)[O-])cc12
inactive: [4] 93 % of control | [13] 103 % of control | [5] 107 % of control | [14] 93 % of control | [15] 95 % of control | [16] 93 % of control

O=C(O)C(Oc1ccc(Cl)cc1)c1ccc(Cl)cc1 (stereo not drawn)
inactive: [13] 96 % of control | [14] 91 % of control

Clc1ccc(-n2cnnn2)cc1
inactive: [17] 98 % of control | [18] 98 % of control

CCN(N=O)c1ccc(/C=C2/C=Cc3ccccc32)cc1
inactive: [10] 95 % of control | [11] 90 % of control | [12] 101 % of control

Clc1nc2nsnc2nc1Cl
inactive: dose: 25.0 mg/kg/injection, schedule: Q01DX009 (ip), vehicle: saline with Tween-80 91 % of control | dose: 50.0 mg/kg/injection, schedule: Q01DX009 (ip), vehicle: saline with Tween-80 110 % of control | [1] 96 % of control | [2] 104 % of control | [3] 94 % of control

CC1CCC(C(C)C)C(OC(=O)Nc2ccc(S(=O)(=O)N(C)C)cc2)C1 (stereo not drawn)
inactive: [17] 94 % of control | [18] 89 % of control | [19] 91 % of control
